The NIST ThermoML archive (doi:10.1021/je800628a)
Numbers after ± are expanded uncertainties.

Columns and labels:
[1] = Molar enthalpy of transition or fusion; details: Crystal; DSC
[2] = Crystal; DTA

Q: Which “Molar enthalpy of transition or fusion” value [1] does the source give for `c1ccc2ccccc2c1` [naphthalene] here?
A: Its value is 4.26 ± 0.131 kcal/mol.

Q: What about the Normal melting temperature [2] of the same compound?
A: Its Normal melting temperature is 83.0 ± 1.1 °C.
